Measured values from article PMC8878317, “Chemogenomics identifies acetyl-coenzyme A synthetase as a target for malaria treatment and prevention” (Cell Chemical Biology, 2022).

Tested on: P. falciparum 3D7 parasites
Assay: Metabolomic profiling of compound-treated parasites (LC/MS);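 on Metabolite data: 3-Phosphoglycerate: Log2 fold change in abundance versus untreated parasite controls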;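 on Metabolite data: Myo-Inositol: Log2 fold change in abundance versus untreated parasite controls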;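 on Metabolite data: N-Carbamoyl-L-Aspartate: Log2 fold change in abundance versus untreated parasite controls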;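 on Metabolite data: Nicotinate: Log2 fold change in abundance versus untreated parasite controls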
Type: cell-based
Design: Metabolite data: dTMP / Metabolite data: GMP / Metabolite data: S-Adenosyl-L-Homocysteine / Metabolite data: 1_3-Bisphosphoglyceric acid: scale not given here
Method in brief: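 Magnetically purified trophozoites (1×10^8 parasites/mL) recovered 1 h in RPMI 1640, incubated a further 2.5 h, quenched in 90% methanol with labeled aspartate. Extracts analysed by reverse-phase C18 LC with negative-mode Orbitrap MS; peak areas normalized to internal standards, blank-subtracted and averaged by condition.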

N#Cc1cc(NC(=O)[C@H]2c3ccccc3C(=O)N(CC(F)(F)F)[C@@H]2c2cccnc2)ccc1F [SJ733]
Metabolite data: 1_3-Bisphosphoglyceric acid: 0 | Metabolite data: 2_3-Diphosphoglyceric acid: -1.405 | Metabolite data: 3-Phosphoglycerate: 0.1564 | Metabolite data: 4-Aminobutyrate: -0.6232 | Metabolite data: 4-Phosphopantothenate: -0.06384 | Metabolite data: 4-phosphopantetheine: 0 | Metabolite data: 5-aminopentanoic acid: 0 | Metabolite data: 5-phosphoribosyl-1-pyrophosphate: 0 | Metabolite data: 6-Phospho-D-Gluconate: -0.1307 | Metabolite data: ADP-D-Glucose: 0.2839 | Metabolite data: Acetyl-CoA: -0.6106 | Metabolite data: Acetyllysine: -2.328 | Metabolite data: Aconitate: 1.12 | Metabolite data: CDP: 0.04523 | Metabolite data: CDP-Ethanolamine: -0.09201 | Metabolite data: CDP-choline: 0 | Metabolite data: CMP: 1.401 | Metabolite data: CTP: -0.9536 | Metabolite data: Citrate/Isocitrate: 0.1284 | Metabolite data: Cyclic-AMP: -1.252 | Metabolite data: Dihydroorotate: -2.603 | Metabolite data: FAD: -1.458 | Metabolite data: FMN: -1.104 | Metabolite data: Fructose-1,6-Bisphosphate: -0.7765 | Metabolite data: Fumarate: 0.221 | Metabolite data: GDP: -2.218 | Metabolite data: GMP: -2.3136 | Metabolite data: GTP: -1.102 | Metabolite data: Glucose-1/6-Phosphate: -0.8546 | Metabolite data: Glutathione Disulfide: -0.003594 | Metabolite data: Hexose: 0 | Metabolite data: Hydroxyisocaproic acid: 0 | Metabolite data: Indole: 0.01538 | Metabolite data: Ketoleucine: 0 | Metabolite data: L-arginino-succinate: 0 | Metabolite data: Lactate: -1.557 | Metabolite data: Malate: 0.2276 | Metabolite data: Myo-Inositol: -4.078 | Metabolite data: N-Acetyl-Glutamate: -0.1913 | Metabolite data: N-Acetyl-L-Alanine: -1.649 | Metabolite data: N-Acetyl-L-Ornithine: -1.387 | Metabolite data: N-Carbamoyl-L-Aspartate: -4.081 | Metabolite data: NAD+: -0.3968 | Metabolite data: NADH: 0.5171 | Metabolite data: NADP+: -0.1788 | Metabolite data: NADPH: 3.012 | Metabolite data: Nicotinate: 0.6001 | Metabolite data: Octulose 8/1-Phosphate: -0.3837 | Metabolite data: Orotate: 0.7127 | Metabolite data: PD: -1.25 | Metabolite data: PE: -3.092 | Metabolite data: PEEK: -1.29 | Metabolite data: Phenol Red: 0 | Metabolite data: Pyroglutamic acid: -0.07146 | Metabolite data: S-Adenosyl-L-Homocysteine: -0.5514 | Metabolite data: S-methyl-5'-thioadenosine: -0.2796 | Metabolite data: SD: -3.659 | Metabolite data: Sedoheptulose Bisphosphate: -0.9288 | Metabolite data: UDP: -0.7526 | Metabolite data: UDP-D-Glucose: -0.1564 | Metabolite data: UDP-D-Glucuronate: -0.198 | Metabolite data: UDP-N-Acetyl-Glucosamine: 0.08301 | Metabolite data: UMP: -0.4316 | Metabolite data: UTP: -1.732 | Metabolite data: a-ketoglutarate: 0.4286 | Metabolite data: acetyl-aspartate: 0 | Metabolite data: arginine: 0 | Metabolite data: asparagine: 0 | Metabolite data: aspartate: 0 | Metabolite data: biotin: 0 | Metabolite data: chlorpropamide: 0 | Metabolite data: coenzyme A: 0 | Metabolite data: dAMP: 2.428 | Metabolite data: dATP: -0.7133 | Metabolite data: dCDP: 1.868 | Metabolite data: dCMP: 1.752 | Metabolite data: dCTP: 0.5805 | Metabolite data: dGDP/ADP: -2.35 | Metabolite data: dGMP/AMP: -1.067 | Metabolite data: dGTP/ATP: 0 | Metabolite data: dTDP: 2.593 | Metabolite data: dTMP: 4.089 | Metabolite data: dTTP: 1.546 | Metabolite data: folate: 0 | Metabolite data: glucono-lactone: 0 | Metabolite data: glutamate: 0 | Metabolite data: glutamine: 0 | Metabolite data: glutathione: 0 | Metabolite data: histidine: 0 | Metabolite data: hydroxyproline/Aminolevulinate: 0 | Metabolite data: isoleucine: 0 | Metabolite data: leucine: 0 | Metabolite data: maleic acid: 0 | Metabolite data: methionine: 0 | Metabolite data: nicotinamide mononucleotide: 0 | Metabolite data: orotidine-5'-phosphate: 0
